Source: patent US7732435B2, “Chromone derivatives useful as antagonists of VR1 receptors” (Novartis AG, priority 2005, dated 2010)
Read-outs that look alike come from different tables or passages of the source.

Molecular target: TRPV1 receptor (UniProt Q8NER1)
Assay: Calcium mobilisation assay in CHO-K1 cells expressing the TRPV1 receptor (inhibition of capsaicin or low pH activation)
Assay type: cell-based, human, rat or guinea pig
Conditions: species not specified
Description: Chinese Hamster Ovary-K1 (CHO-K1) cells, transfected to express either the human, rat or guinea pig TRPV1 receptor, were grown in Minimal Essential Media (MEM) alpha medium without nucleosides supplemented with fetal calf serum (10%), 2 mM L-glutamine, 100 IU/mL penicillin, 100 μg/ml streptomycin and 350-700 μg/ml geneticin. All reagents were supplied by Invitrogen. Cells were grown in T-175 flasks or Costar black, clear-bottomed 96-well view plates and maintained at 37° C. in a 90% humidified incubator with an atmosphere of 5% CO2 and 95% air. The cells were passaged twice a week at a ratio of 1:10 to 1:20 to maintain steady growth. For experimentation, cells were harvested at approximately 80% confluency and plated onto view plates at 40,000 cells per well in 100 μL media and grown overnight.
Calcium Mobilisation Assay […]

IC50 (TRPV1 stimulated by capsaicin at EC80 concentration, read-out: IC50 (capsacin)): 68 nM | IC50 (TRPV1 stimulated by low pH, final pH 5.5, read-out: IC50 (pH 5.5)): 54 nM
Compound: CC(C)c1oc2c(ccc3[nH]c(C(C)(F)F)nc32)c(=O)c1-c1ccc(Cl)cc1 [Example 8, 7-(4-Chlorophenyl)-2-(1,1-difluoroethyl)-8-isopropyl-3H-chromeno[7,8-d]imidazol-6-one]
